{"source": "patent US20120065228A1", "about": "“COMPOSITIONS AND METHODS FOR TREATING, CONTROLLING, REDUCING, OR AMELIORATING OCULAR INFLAMMATORY WITH LOWER RISK OF INCREASED INTRAOCULAR PRESSURE” (priority 2007, published 2012)", "test_system": "intraocular pressure (IOP) in New Zealand White rabbits", "experiment": "Intraocular pressure in New Zealand White rabbits, topical dosing four times daily", "type": "in vivo", "method": "On Days 1-31, animals received daily topical doses of the appropriate test article into the right eye. Animals were dosed four times per day, with doses administered 2 hours apart. Doses were administered using a calibrated 50-μL pipette. The eyelids were held close for 10 seconds immediately following dosing. The time of each dose administration was recorded.\nIntraocular pressure (“IOP”) was determined for both eyes of each animal on Days 3, 5, 10, 12, 16, 18, 22, 24, 26, 30, and 32. LOP was evaluated with a Medtronic Solan, Model 30 classic pneumatonometer. Proparacaine hydrochloride 0.5% (1 drop) was delivered to each eye prior to IOP measurement. IOP was measured on Monday, Wednesday, and Friday of each week. A two-point diurnal curve was established: IOP was recorded at 8 a.m. and 12 p.m. on Day 3, and at 8 a.m. and 2 p.m. on later days, with a ±1 hour range for each of these times. The time of the measurements was recorded.\nDescriptive statistics were prepared for IOP data of each treatment group (left and right eyes separately) at each measurement interval. The statistics included the number of observations (“N”), mean, standard deviation (“STD”), and standard error (“SEM”). Statistical analyses were conducted on IOP results using Statistical Analysis Systems (SAS Institute, Inc., Cary, N.C., V8.0). Parameters were evaluated using analysis of variance/GLM Procedure followed by Tukey's Standardized Range Test (Tukey, 1985) for post hoc comparisons of group means. The level of significance was set at a probability of p<0.05 for all statistical procedures. Group IOP means were compared at each interval, with left and right eyes compared separately.\nIOP data for the following six animals were excluded from group statistics: Group A, Nos. 3081, 3037, 3068, and 3011; Group C, No. 3034; and Group E, No. 3084.", "data": [{"molecule": "Cc1ccc2c(NCC(O)(CC(C)(C)c3cc(F)cc4c3OCC4)C(F)(F)F)cccc2n1", "note": "(stereo not drawn) [BOL-303242-X]", "values": [{"measurement": "Intraocular Pressure, MEAN", "setting": "treated right eyes, A.M. readings, Day 3, 5 mg/g (Group C)", "result": 23.7, "unit": "mmHg"}, {"measurement": "Intraocular Pressure, MEAN", "setting": "treated right eyes, A.M. readings, Day 3, 10 mg/g (Group B)", "result": 22.7, "unit": "mmHg"}, {"measurement": "Intraocular Pressure, MEAN", "setting": "treated right eyes, A.M. readings, Day 5, 1 mg/g (Group D)", "result": 24.7, "unit": "mmHg"}, {"measurement": "Intraocular Pressure, MEAN", "setting": "treated right eyes, A.M. readings, Day 5, 5 mg/g (Group C)", "result": 24.7, "unit": "mmHg"}, {"measurement": "Intraocular Pressure, MEAN", "setting": "treated right eyes, A.M. readings, Day 5, 10 mg/g (Group B)", "result": 23.8, "unit": "mmHg"}, {"measurement": "Intraocular Pressure, MEAN", "setting": "treated right eyes, A.M. readings, Day 10, 1 mg/g (Group D)", "result": 24.8, "unit": "mmHg"}, {"measurement": "Intraocular Pressure, MEAN", "setting": "treated right eyes, A.M. readings, Day 10, 5 mg/g (Group C)", "result": 25.2, "unit": "mmHg"}, {"measurement": "Intraocular Pressure, MEAN", "setting": "treated right eyes, A.M. readings, Day 10, 10 mg/g (Group B)", "result": 24.5, "unit": "mmHg"}, {"measurement": "Intraocular Pressure, MEAN", "setting": "treated right eyes, A.M. readings, Day 12, 1 mg/g (Group D)", "result": 23.4, "unit": "mmHg"}, {"measurement": "Intraocular Pressure, MEAN", "setting": "treated right eyes, A.M. readings, Day 12, 5 mg/g (Group C)", "result": 25.0, "unit": "mmHg"}, {"measurement": "Intraocular Pressure, MEAN", "setting": "treated right eyes, A.M. readings, Day 12, 10 mg/g (Group B)", "result": 23.9, "unit": "mmHg"}, {"measurement": "Intraocular Pressure, MEAN", "setting": "treated right eyes, A.M. readings, Day 16, 1 mg/g (Group D)", "result": 22.1, "unit": "mmHg"}, {"measurement": "Intraocular Pressure, MEAN", "setting": "treated right eyes, A.M. readings, Day 16, 5 mg/g (Group C)", "result": 24.3, "unit": "mmHg"}, {"measurement": "Intraocular Pressure, MEAN", "setting": "treated right eyes, A.M. readings, Day 16, 10 mg/g (Group B)", "result": 23.4, "unit": "mmHg"}, {"measurement": "Intraocular Pressure, MEAN", "setting": "treated right eyes, A.M. readings, Day 18, 1 mg/g (Group D)", "result": 23.7, "unit": "mmHg"}, {"measurement": "Intraocular Pressure, MEAN", "setting": "treated right eyes, A.M. readings, Day 18, 5 mg/g (Group C)", "result": 23.9, "unit": "mmHg"}, {"measurement": "Intraocular Pressure, MEAN", "setting": "treated right eyes, A.M. readings, Day 18, 10 mg/g (Group B)", "result": 22.3, "unit": "mmHg"}, {"measurement": "Intraocular Pressure, MEAN", "setting": "treated right eyes, A.M. readings, Day 22, 1 mg/g (Group D)", "result": 23.2, "unit": "mmHg"}, {"measurement": "Intraocular Pressure, MEAN", "setting": "treated right eyes, A.M. readings, Day 22, 5 mg/g (Group C)", "result": 22.4, "unit": "mmHg"}, {"measurement": "Intraocular Pressure, MEAN", "setting": "treated right eyes, A.M. readings, Day 22, 10 mg/g (Group B)", "result": 22.4, "unit": "mmHg"}, {"measurement": "Intraocular Pressure, MEAN", "setting": "treated right eyes, A.M. readings, Day 24, 1 mg/g (Group D)", "result": 22.1, "unit": "mmHg"}, {"measurement": "Intraocular Pressure, MEAN", "setting": "treated right eyes, A.M. readings, Day 24, 5 mg/g (Group C)", "result": 23.8, "unit": "mmHg"}, {"measurement": "Intraocular Pressure, MEAN", "setting": "treated right eyes, A.M. readings, Day 24, 10 mg/g (Group B)", "result": 21.2, "unit": "mmHg"}, {"measurement": "Intraocular Pressure, MEAN", "setting": "treated right eyes, A.M. readings, Day 26, 1 mg/g (Group D)", "result": 23.1, "unit": "mmHg"}, {"measurement": "Intraocular Pressure, MEAN", "setting": "treated right eyes, A.M. readings, Day 26, 5 mg/g (Group C)", "result": 22.1, "unit": "mmHg"}, {"measurement": "Intraocular Pressure, MEAN", "setting": "treated right eyes, A.M. readings, Day 26, 10 mg/g (Group B)", "result": 21.8, "unit": "mmHg"}, {"measurement": "Intraocular Pressure, MEAN", "setting": "treated right eyes, A.M. readings, Day 30, 1 mg/g (Group D)", "result": 24.2, "unit": "mmHg"}, {"measurement": "Intraocular Pressure, MEAN", "setting": "treated right eyes, A.M. readings, Day 30, 5 mg/g (Group C)", "result": 22.9, "unit": "mmHg"}, {"measurement": "Intraocular Pressure, MEAN", "setting": "treated right eyes, A.M. readings, Day 30, 10 mg/g (Group B)", "result": 22.7, "unit": "mmHg"}, {"measurement": "Intraocular Pressure, MEAN", "setting": "treated right eyes, A.M. readings, Day 32, 1 mg/g (Group D)", "result": 24.9, "unit": "mmHg"}, {"measurement": "Intraocular Pressure, MEAN", "setting": "treated right eyes, A.M. readings, Day 32, 5 mg/g (Group C)", "result": 23.4, "unit": "mmHg"}, {"measurement": "Intraocular Pressure, MEAN", "setting": "treated right eyes, A.M. readings, Day 32, 10 mg/g (Group B)", "result": 23.9, "unit": "mmHg"}, {"measurement": "Intraocular Pressure, MEAN", "setting": "treated right eyes, A.M. readings, Pre-Study, 1 mg/g (Group D)", "result": 24.4, "unit": "mmHg"}, {"measurement": "Intraocular Pressure, MEAN", "setting": "treated right eyes, A.M. readings, Pre-Study, 5 mg/g (Group C)", "result": 24.8, "unit": "mmHg"}, {"measurement": "Intraocular Pressure, MEAN", "setting": "treated right eyes, A.M. readings, Pre-Study, 10 mg/g (Group B)", "result": 24.0, "unit": "mmHg"}, {"measurement": "Intraocular Pressure, MEAN", "setting": "untreated left eyes, P.M. readings, Day 3, 1 mg/g (Group D)", "result": 25.0, "unit": "mmHg"}, {"measurement": "Intraocular Pressure, MEAN", "setting": "untreated left eyes, P.M. readings, Day 3, 5 mg/g (Group C)", "result": 23.9, "unit": "mmHg"}, {"measurement": "Intraocular Pressure, MEAN", "setting": "untreated left eyes, P.M. readings, Day 3, 10 mg/g (Group B)", "result": 23.3, "unit": "mmHg"}, {"measurement": "Intraocular Pressure, MEAN", "setting": "untreated left eyes, P.M. readings, Day 5, 1 mg/g (Group D)", "result": 24.7, "unit": "mmHg"}, {"measurement": "Intraocular Pressure, MEAN", "setting": "untreated left eyes, P.M. readings, Day 5, 5 mg/g (Group C)", "result": 24.8, "unit": "mmHg"}, {"measurement": "Intraocular Pressure, MEAN", "setting": "untreated left eyes, P.M. readings, Day 5, 10 mg/g (Group B)", "result": 25.2, "unit": "mmHg"}, {"measurement": "Intraocular Pressure, MEAN", "setting": "untreated left eyes, P.M. readings, Day 10, 1 mg/g (Group D)", "result": 24.9, "unit": "mmHg"}, {"measurement": "Intraocular Pressure, MEAN", "setting": "untreated left eyes, P.M. readings, Day 10, 5 mg/g (Group C)", "result": 24.6, "unit": "mmHg"}, {"measurement": "Intraocular Pressure, MEAN", "setting": "untreated left eyes, P.M. readings, Day 10, 10 mg/g (Group B)", "result": 23.5, "unit": "mmHg"}, {"measurement": "Intraocular Pressure, MEAN", "setting": "untreated left eyes, P.M. readings, Day 12, 1 mg/g (Group D)", "result": 23.7, "unit": "mmHg"}, {"measurement": "Intraocular Pressure, MEAN", "setting": "untreated left eyes, P.M. readings, Day 12, 5 mg/g (Group C)", "result": 23.3, "unit": "mmHg"}, {"measurement": "Intraocular Pressure, MEAN", "setting": "untreated left eyes, P.M. readings, Day 12, 10 mg/g (Group B)", "result": 24.1, "unit": "mmHg"}, {"measurement": "Intraocular Pressure, MEAN", "setting": "untreated left eyes, P.M. readings, Day 16, 1 mg/g (Group D)", "result": 21.9, "unit": "mmHg"}, {"measurement": "Intraocular Pressure, MEAN", "setting": "untreated left eyes, P.M. readings, Day 16, 5 mg/g (Group C)", "result": 20.4, "unit": "mmHg"}, {"measurement": "Intraocular Pressure, MEAN", "setting": "untreated left eyes, P.M. readings, Day 16, 10 mg/g (Group B)", "result": 21.4, "unit": "mmHg"}, {"measurement": "Intraocular Pressure, MEAN", "setting": "untreated left eyes, P.M. readings, Day 18, 1 mg/g (Group D)", "result": 22.7, "unit": "mmHg"}, {"measurement": "Intraocular Pressure, MEAN", "setting": "untreated left eyes, P.M. readings, Day 18, 5 mg/g (Group C)", "result": 21.9, "unit": "mmHg"}, {"measurement": "Intraocular Pressure, MEAN", "setting": "untreated left eyes, P.M. readings, Day 18, 10 mg/g (Group B)", "result": 22.1, "unit": "mmHg"}, {"measurement": "Intraocular Pressure, MEAN", "setting": "untreated left eyes, P.M. readings, Day 22, 1 mg/g (Group D)", "result": 22.1, "unit": "mmHg"}, {"measurement": "Intraocular Pressure, MEAN", "setting": "untreated left eyes, P.M. readings, Day 22, 5 mg/g (Group C)", "result": 22.1, "unit": "mmHg"}, {"measurement": "Intraocular Pressure, MEAN", "setting": "untreated left eyes, P.M. readings, Day 22, 10 mg/g (Group B)", "result": 22.6, "unit": "mmHg"}, {"measurement": "Intraocular Pressure, MEAN", "setting": "untreated left eyes, P.M. readings, Day 24, 1 mg/g (Group D)", "result": 22.9, "unit": "mmHg"}, {"measurement": "Intraocular Pressure, MEAN", "setting": "untreated left eyes, P.M. readings, Day 24, 5 mg/g (Group C)", "result": 22.2, "unit": "mmHg"}, {"measurement": "Intraocular Pressure, MEAN", "setting": "untreated left eyes, P.M. readings, Day 24, 10 mg/g (Group B)", "result": 22.8, "unit": "mmHg"}, {"measurement": "Intraocular Pressure, MEAN", "setting": "untreated left eyes, P.M. readings, Day 26, 1 mg/g (Group D)", "result": 22.1, "unit": "mmHg"}, {"measurement": "Intraocular Pressure, MEAN", "setting": "untreated left eyes, P.M. readings, Day 26, 5 mg/g (Group C)", "result": 22.3, "unit": "mmHg"}, {"measurement": "Intraocular Pressure, MEAN", "setting": "untreated left eyes, P.M. readings, Day 26, 10 mg/g (Group B)", "result": 21.4, "unit": "mmHg"}, {"measurement": "Intraocular Pressure, MEAN", "setting": "untreated left eyes, P.M. readings, Day 30, 10 mg/g (Group B)", "result": 21.7, "unit": "mmHg"}]}]}
